Measured values reported in patent publication US10064843B2, “Bis-amide derivative and use thereof” (University-Industry Cooperation Group of Kyung Hee …, priority 2013, dated 2018).

Tests used:
CypA = target: T1, CypA (Homo sapiens, UniProt P62937); assay: 2D 1H TOCSY NMR of the WJCPA-126 and CypA complex; type: binding; details: FIG. 4
T1 construct: GST (N, cleaved yes); made in house; host or cells: E. coli (pGEX-KG)
Description: In the spin system of […],[…], and […] of CypA, the connectivity was shown in yellow-, green-, and red solid lines. […] From the above result, it was confirmed that the bis-amide compounds of the present invention can specifically bind to […],[…], and […] residues of CypA thereby inhibiting the PPIase activity of CypA.

in vitro = type: cell-based, hepatitis C virus; details: genotype 1b Con1b; FIG. 11a
Method: (§1) The effect of WJCPA-126 was determined in percentage of fluorescent cells in each image using sub-genotype 1b replicated cells. EC50 and CC50 were determined via nonlinear regression analysis using GraphPad Prism (GraphPad Software). The GFP expression level was quantitated and shown in the left panel. The images of GFP at the level of replicated cells were obtained while increasing the concentration of WJCPA-126 and are shown on the right panel.

[1] = system: genotype 1b (Con1b) replication cells; assay: microbe, parasite or virus in culture; type: cell-based, hepatitis C virus; details: Hepatitis C virus
Method: as §1

[2] = target: T2, GST-CypA and NS5A or NS5B (Homo sapiens, UniProt P62937); assay: GST pull-down assay of CypA with NS5A or NS5B; type: binding; details: 2 μM and 4 μM; FIG. 12b
T2 construct: made in house; host or cells: E. coli (pGEX-KG)
T2 sequence (P62937 whole entry): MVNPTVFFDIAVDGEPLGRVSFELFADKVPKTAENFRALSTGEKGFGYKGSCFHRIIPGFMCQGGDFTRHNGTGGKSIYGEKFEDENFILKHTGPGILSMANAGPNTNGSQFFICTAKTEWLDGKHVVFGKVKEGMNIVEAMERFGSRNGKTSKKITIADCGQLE
Method: Example 15: Expression and Purification of GST Proteins
A plasmid pGEX-KG was used for the expression of recombinant proteins in E. coli. GST-CypA, a mutant GST-CypAR55A (a mutation at PPIase site), GST-CypB, GST-NS5A, and the full length GST-NS5B were prepared by a standard replication process. The bacteria expression vector, pGEX-KG, was transformed into TOPIOF cells (Promega, Madison, Wis., USA). The bacteria culture was grown in LB medium containing 100 μg/mL of ampicillin until the optical density at 600 nm reached 0.8 to 1.0. Then, 0.1 mM isopropyl β-D-1-thiogalactopyranoside (IPTG) was added thereto to induce the expression of a GST fusion protein and incubated further at 30° C. for 4 hours. The resulting bacteria was pelleted by centrifugation at 340 g for 20 minutes at 4° C., resuspended in 10 mL PBST (PBS containing 1% Triton X-100), added with 1 mM PMSF, and subjected to sonication at 25% amplitude with a brake at intervals of 10 seconds for 30 minutes. Upon sonication, the bacteria extract was centrifuged at 340 g for 5 minutes at 4° C. and the supernatant containing GST protein was stored at −80° C. The GST fusion protein was cleaved in thrombin-cleaving buffer containing 50 units of thrombin overnight so that the recombinant proteins could be released from the GST-tagged glutathione resin. […]

HCV-Con1b replicon = assay: HCV mouse model (NOD/SCID mice transplanted with Huh7 HCV-Con1b replicon cells); details: 50 mg/kg intraperitoneally daily, two weeks
Method: Five to six-week old immunodeficient NOD/SCID mice (Charles River Laboratories, USA) were used. The use of experimental animals and experimental protocol (KHUASP (SE)-11-045) was approved by the Institutional Animal Care and Use Committee of Kyung Hee University (Seoul, Korea). The control Huh7 cells or the Huh7 cells including the HCV-Con1b replicon were injected into mice intrasplenically (1×10^6 cells/200 μL of PBS). Cell transplantation and surgical procedures were performed under anesthesia along with a prophylactic antibiotic. […] Each treatment group consisted of 5 mice. Upon completion of the treatment, the mice were sacrificed and liver tissues were collected from them for analysis.
Murine liver tissues were dissected and then cryoprotected in 30% sucrose for the preparation of paraffin-embedded samples. Paraffin samples for Hematoxylin and Eosin (H&E) staining were prepared. After removing paraffin, rehydrated samples were incubated with monoclonal antibodies to human hepatocytes (Hep par 1) and HCV NS5A (Santa Cruz, Calif., USA), which were diluted at a ratio of 1:50, at 4° C. overnight. […] The nuclei were stained with DAPI for 5 minutes and analyzed using a confocal microscope.
HCV RNA was extracted from liver tissue by Trizol method. Mouse liver tissues were mechanically destroyed and lysed in Trizol (Invitrogen, Carlsbad, Calif., USA). The quantitative analysis of HCV RNA was performed using real-time transcription PCR.

T1 sequence (P62937 whole entry): as above

In the case of `COc1cc(C(C(=O)NC2CCCCC2)N(C(=O)Cc2c[nH]c3ccccc23)c2ccc(C(C)C)cc2)cc(OC)c1OC` (stereo not shown) [WJCPA-126, N-cyclohexyl-2-[(2-1H-indol-3-yl-acetyl)-(4-isopropyl-phenyl)-amino]-2-(3,4,5-trimethoxy-phenyl)-acetamide], the “binding residues of CypA by NMR” value (CypA) is reported as “binds to Arg 55, Trp 121, and Phe 113 residues of CypA”, the CC50 (in vitro) is reported as 12.4 ± 2.1 µM and the EC50 [1] is reported as 0.73 ± 0.1 µM. For the same molecule, the “binding between GST-CypA and NS5A or NS5B” value [2] was “significant decrease of the binding between GST-CypA and NS5A or NS5B”, the body weight (HCV-Con1b replicon; FIG. 19a) was “did not show any noticeable change in body weight” and the “HCV RNA level in liver” value (HCV-Con1b replicon; FIG. 19b) was “relatively higher level of inhibition on the HCV RNA level than the CsA treatment”. The “HCV NS5A in transplanted mouse liver tissue (immunofluorescence)” value (HCV-Con1b replicon; FIG. 20) was “only faintly detected”.
